Where two headings read alike, the source gives them in different places.
Experiments:
non-expressing oocytes [1] = assay: cells; assay type: cell-based, Xenopus laevis; details: Xenopus laevis, total [3H]CQ transport; for inhibition at 500 µM: [test solute] = 0.5 mM; for inhibition at 1000 µM: [test solute] = 1 mM; for inhibition at 2000 µM: [test solute] = 2 mM
Outline: (§1)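 Assay buffer ND96 (10 mM MES, 10 mM Tris-base) held at pH 5.5 to mimic vacuole lumen; uptake measured inward from this acidic medium over 1.5 h at 27.5 °C.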

PfCRT^3D7 [2] = target: T1, PfCRT^3D7 (Plasmodium falciparum, UniProt Q8IBZ9); assay: cell-based; assay type: cell-based; details: total [3H]CQ transport; for inhibition at 500 µM: [test solute] = 0.5 mM; for inhibition at 1000 µM: [test solute] = 1 mM; for inhibition at 2000 µM: [test solute] = 2 mM
T1 sequence (Q8IBZ9 59-398): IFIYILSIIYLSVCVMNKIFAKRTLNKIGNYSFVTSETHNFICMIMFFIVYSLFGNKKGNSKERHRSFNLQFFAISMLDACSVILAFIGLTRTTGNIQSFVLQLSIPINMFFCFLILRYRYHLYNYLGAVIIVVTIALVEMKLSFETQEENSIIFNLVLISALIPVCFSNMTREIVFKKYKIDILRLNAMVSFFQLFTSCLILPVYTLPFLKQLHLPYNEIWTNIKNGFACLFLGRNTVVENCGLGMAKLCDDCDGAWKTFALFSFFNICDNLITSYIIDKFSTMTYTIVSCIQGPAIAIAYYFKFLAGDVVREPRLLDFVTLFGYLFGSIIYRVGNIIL
Outline: as §1

PfCRT^Dd2 [3] = target: T2, PfCRT^Dd2 (Plasmodium falciparum, UniProt Q9N623, A220S/I356T/K76T/M74I/N326S/N75E/Q271E/R371I); assay: [3H]CQ uptake into Xenopus oocytes, cis-inhibition by unlabelled solute; assay type: cell-based
T2 sequence (Q9N623 whole entry A220S/I356T/K76T/M74I/N326S/N75E/Q271E/R371I): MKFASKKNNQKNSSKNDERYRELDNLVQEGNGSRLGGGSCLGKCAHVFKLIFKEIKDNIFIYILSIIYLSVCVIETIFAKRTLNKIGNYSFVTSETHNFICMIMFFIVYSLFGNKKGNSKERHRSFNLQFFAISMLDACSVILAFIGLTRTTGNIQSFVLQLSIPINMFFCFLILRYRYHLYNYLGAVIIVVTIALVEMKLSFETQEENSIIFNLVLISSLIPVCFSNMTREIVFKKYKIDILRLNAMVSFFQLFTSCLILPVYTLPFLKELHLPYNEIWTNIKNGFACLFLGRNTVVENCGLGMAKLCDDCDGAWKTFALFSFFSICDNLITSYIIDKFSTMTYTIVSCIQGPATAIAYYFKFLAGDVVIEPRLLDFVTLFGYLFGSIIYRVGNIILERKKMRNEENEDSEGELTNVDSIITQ
Outline: as §1

PfCRT^Ecu1110 [4] = target: T3, PfCRT^Ecu1110 (Plasmodium falciparum, UniProt Q9N623, A220S/I356L/K76T/N326D); assay: as above; assay type: cell-based
T3 sequence (Q9N623 whole entry A220S/I356L/K76T/N326D): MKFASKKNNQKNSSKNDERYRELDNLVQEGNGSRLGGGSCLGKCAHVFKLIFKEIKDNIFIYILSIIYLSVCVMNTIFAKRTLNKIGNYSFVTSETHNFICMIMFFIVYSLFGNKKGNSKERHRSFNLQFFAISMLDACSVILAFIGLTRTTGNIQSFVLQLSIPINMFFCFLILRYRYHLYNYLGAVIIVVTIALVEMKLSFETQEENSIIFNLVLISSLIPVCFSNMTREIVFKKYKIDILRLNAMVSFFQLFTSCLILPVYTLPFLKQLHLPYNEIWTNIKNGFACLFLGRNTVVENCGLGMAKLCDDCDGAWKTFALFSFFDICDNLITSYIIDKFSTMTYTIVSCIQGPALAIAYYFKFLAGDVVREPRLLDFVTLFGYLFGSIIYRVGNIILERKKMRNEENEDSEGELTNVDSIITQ
Outline: as §1

non-expressing oocytes [5] = assay type: cell-based, Xenopus laevis; details: total [3H]CQ transport; for Uptake of [3H]CQ (% non-expressing oocyte control), trans-stimulation: non-expressing oocytes, normalised to the oocyte type control; for Uptake of [3H]CQ (% PfCRTDd2 control), trans-stimulation, non-expressing oocytes: mean ± SEM, SEM
Outline: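 Oocytes (ten per treatment, ≥4 independent frogs/days) were preloaded by injecting VF-6 in 25 nL ND96 at pH 5.0, 5.5, 6.0 or 7.0, or Na^+-free choline buffer, then uptake run 1.5 h, 27.5 °C, ND96 pH 5.5 by default. Internal concentrations assumed ~400 nL oocyte volume.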

PfCRT^3D7 [6] = target: T1, PfCRT^3D7; assay: cell-based; assay type: cell-based
Outline: (§2)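 Transport measured in Xenopus oocytes expressing the transporters, 1.5 h at 27.5 °C in ND96 pH 5.5 unless noted. For trans-stimulation, VF-6 injected in 25 nL ND96 at pH 5.0–7.0 or Na^+-free (choline) buffer; intracellular levels based on ~400 nL oocyte volume. Ten oocytes per treatment, ≥4 experiments.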

PfCRT^Dd2 [7] = target: T2, PfCRT^Dd2; assay: cell-based; assay type: cell-based; details: […]; for activity at 45000 µM: [test solute]i = 45 mM (30 mM for some solutes due to solubility)
Outline: as §2

PfCRT^Ecu1110 [8] = target: T3, PfCRT^Ecu1110; assay: cell-based; assay type: cell-based; details: […]
Outline: as §2

PfNT1 = target: T4, PfNT1 (Plasmodium falciparum, UniProt Q8IDM6); assay: cell-based; assay type: cell-based; details: for activity at 5000 µM: total [3H]CQ transport
T4 construct: expressed in transfected cells; host or cells: Xenopus laevis oocytes (stage V-VI), cRNA-injected
T4 sequence (Q8IDM6 whole entry): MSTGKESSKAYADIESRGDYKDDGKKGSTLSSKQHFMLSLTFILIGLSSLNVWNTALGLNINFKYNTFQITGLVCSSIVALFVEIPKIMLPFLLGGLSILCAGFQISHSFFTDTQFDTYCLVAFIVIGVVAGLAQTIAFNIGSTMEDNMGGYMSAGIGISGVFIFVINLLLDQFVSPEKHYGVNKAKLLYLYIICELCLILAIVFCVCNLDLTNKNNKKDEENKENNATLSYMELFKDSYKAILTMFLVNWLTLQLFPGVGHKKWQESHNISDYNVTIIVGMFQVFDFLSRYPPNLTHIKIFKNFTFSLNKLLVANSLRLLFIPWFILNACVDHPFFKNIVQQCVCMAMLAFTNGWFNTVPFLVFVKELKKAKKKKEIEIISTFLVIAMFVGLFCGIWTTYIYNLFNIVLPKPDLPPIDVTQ
Outline: as §2

PfCRT [9] = assay: Influx of VF-6 via PfCRT into the oocyte, solutes tested as potential co-substrates; assay type: cell-based, Plasmodium falciparum; parameters: key: X: Compounds that have been tested as potential co-substrates but are not required for influx of VF-6 via PfCRT into the oocyte; details: X marks the solute
PfCRT [10] = assay: Test of solutes as potential co-substrates for influx of VF-6 via PfCRT into the oocyte; assay type: cell-based, Plasmodium falciparum; parameters: key: X: Compounds that have been tested as potential co-substrates but are not required for influx of VF-6 via PfCRT into the oocyte; details: X = tested
[11] = Oocyte, mean ± SEM, SEM, read-out: Uptake of [3H]CQ (% PfCRTDd2 control), cis-inhibition, non-expressing oocytes
[12] = non-expressing oocytes, normalised to the oocyte type control, read-out: Uptake of [3H]CQ (% non-expressing oocyte control), cis-inhibition
[13] = PfCRT3D7 oocytes, normalised to the oocyte type control, read-out: Uptake of [3H]CQ (% PfCRT3D7 control), cis-inhibition
[14] = mean ± SEM, SEM, read-out: Uptake of [3H]CQ (% PfCRTDd2 control), cis-inhibition, PfCRT3D7
[15] = read-out: PfCRT-mediated [3H]CQ transport, cis-inhibition (% PfCRTDd2 control)
[16] = read-out: Uptake of [3H]CQ (% PfCRTDd2 control), cis-inhibition
[17] = read-out: Uptake of [3H]CQ (% PfCRTDd2 control), cis-inhibition, PfCRTDd2, SEM
[18] = read-out: [3H]CQ transport (% PfCRTDd2 control), cis-inhibition, PfCRTDd2, SEM
[19] = read-out: PfCRT-mediated [3H]CQ transport, cis-inhibition (% PfCRTEcu1110 control)
[20] = read-out: Uptake of [3H]CQ (% PfCRTDd2 control), cis-inhibition, PfCRTEcu1110, SEM
[21] = read-out: Uptake of [3H]CQ (% PfCRTEcu1110 control), cis-inhibition
[22] = read-out: [3H]CQ transport (% PfCRTEcu1110 control), cis-inhibition, PfCRTEcu1110, SEM

NC(=O)CC[C@H](N)C(=O)O [L-glutamine]
inhibition at 500 µM (non-expressing oocytes [1]; [11]): 3.2 ± 0.07%
inhibition at 1000 µM (non-expressing oocytes [1]; [11]): 2.7 ± 0.05%
inhibition at 2000 µM (non-expressing oocytes [1]; [11]): 2.2 ± 0.03%
inhibition at 500 µM (non-expressing oocytes [1]; [12]): 99 ± 3.2%
inhibition at 1000 µM (non-expressing oocytes [1]; [12]): 100 ± 6.3%
inhibition at 2000 µM (non-expressing oocytes [1]; [12]): 98 ± 3.5%
inhibition at 500 µM (PfCRT^3D7 [2]; [13]): 101 ± 4.8%
inhibition at 1000 µM (PfCRT^3D7 [2]; [13]): 99 ± 3.6%
inhibition at 2000 µM (PfCRT^3D7 [2]; [13]): 99 ± 4.7%
inhibition at 500 µM (PfCRT^3D7 [2]; [14]): 2.6 ± 0.04%
inhibition at 1000 µM (PfCRT^3D7 [2]; [14]): 2.1 ± 0.01%
inhibition at 2000 µM (PfCRT^3D7 [2]; [14]): 2.6 ± 0.04%
inhibition at 500 µM (PfCRT^Dd2 [3]; [15]): 98 ± 2.8%
inhibition at 1000 µM (PfCRT^Dd2 [3]; [15]): 98 ± 3.6%
inhibition at 2000 µM (PfCRT^Dd2 [3]; [15]): 95 ± 5.5%
inhibition at 500 µM (PfCRT^Dd2 [3]; [16]): 100 ± 4.9%
inhibition at 1000 µM (PfCRT^Dd2 [3]; [16]): 100 ± 5.2%
inhibition at 500 µM (PfCRT^Dd2 [3]; [17]): 100 ± 4.9%
inhibition at 1000 µM (PfCRT^Dd2 [3]; [17]): 100 ± 5.2%
inhibition at 2000 µM (PfCRT^Dd2 [3]; [17]): 97 ± 8.3%
inhibition at 500 µM (PfCRT^Dd2 [3]; [18]): 98 ± 2.8%
inhibition at 1000 µM (PfCRT^Dd2 [3]; [18]): 98 ± 3.6%
inhibition at 1000 µM (PfCRT^Ecu1110 [4]; [19]): 95 ± 3.5%
inhibition at 2000 µM (PfCRT^Ecu1110 [4]; [19]): 96 ± 6.2%
inhibition at 500 µM (PfCRT^Ecu1110 [4]; [20]): 32 ± 0.4%
inhibition at 1000 µM (PfCRT^Ecu1110 [4]; [20]): 32 ± 1.4%
inhibition at 2000 µM (PfCRT^Ecu1110 [4]; [20]): 32 ± 1.1%
inhibition at 500 µM (PfCRT^Ecu1110 [4]; [21]): 98 ± 6.9%
inhibition at 1000 µM (PfCRT^Ecu1110 [4]; [21]): 97 ± 6.4%
inhibition at 2000 µM (PfCRT^Ecu1110 [4]; [21]): 99 ± 6.3%
inhibition at 500 µM (PfCRT^Ecu1110 [4]; [22]): 29 ± 1.2%
inhibition at 1000 µM (PfCRT^Ecu1110 [4]; [22]): 29 ± 0.2%
inhibition at 2000 µM (PfCRT^Ecu1110 [4]; [22]): 29 ± 0.1%
Uptake of [3H]CQ (% non-expressing oocyte control), trans-stimulation (non-expressing oocytes [5]; [test solute]i = 5 mM): 100 ± 3.2 % non-expressing oocyte control
Uptake of [3H]CQ (% non-expressing oocyte control), trans-stimulation (non-expressing oocytes [5]; [test solute]i = 45 mM (30 mM for some solutes due to solubility)): 98 ± 2.2 % non-expressing oocyte control
Uptake of [3H]CQ (% PfCRTDd2 control), trans-stimulation, non-expressing oocytes (non-expressing oocytes [5]; [test solute]i = 5 mM (intracellular)): 2.7 ± 0.07 % PfCRTDd2 control
Uptake of [3H]CQ (% PfCRTDd2 control), trans-stimulation, non-expressing oocytes (non-expressing oocytes [5]; [test solute]i = 45 mM (intracellular; 30 mM for some solutes due to solubility)): 2.7 ± 0.05 % PfCRTDd2 control
activity at 5000 µM (PfCRT^3D7 [6]; PfCRT3D7 oocytes, [test solute]i = 5 mM, total [3H]CQ transport, normalised to the oocyte type control, read-out: Uptake of [3H]CQ (% PfCRT3D7 control), trans-stimulation): 99 ± 3.2%
[3H]CQ transport (% PfCRT3D7 control), trans-stimulation, PfCRT3D7 (PfCRT^3D7 [6]; SEM): 0.3 ± 0.01 % PfCRT3D7 control
activity at 5000 µM (PfCRT^3D7 [6]; [test solute]i = 5 mM (intracellular), PfCRT3D7 oocytes, normalised to oocyte type control, read-out: PfCRT-mediated [3H]CQ transport, trans-stimulation (% PfCRT3D7 control)): 97 ± 4.6%
activity at 45000 µM (PfCRT^3D7 [6]; SEM, read-out: Uptake of [3H]CQ (% PfCRTDd2 control), trans-stimulation, PfCRT3D7): 3.3 ± 0.04%
activity at 45000 µM (PfCRT^3D7 [6]; read-out: PfCRT-mediated [3H]CQ transport, trans-stimulation (% PfCRT3D7 control)): 98 ± 1%
activity at 45000 µM (PfCRT^3D7 [6]; read-out: Uptake of [3H]CQ (% PfCRT3D7 control), trans-stimulation): 100 ± 2.7%
activity at 5000 µM (PfCRT^3D7 [6]; total [3H]CQ transport, [test solute]i = 5 mM (intracellular), mean ± SEM, SEM, read-out: Uptake of [3H]CQ (% PfCRTDd2 control), trans-stimulation, PfCRT3D7): 3.3 ± 0.01%
activity at 5000 µM (PfCRT^Dd2 [7]; pH 5.5, read-out: PfCRT-mediated [3H]CQ transport, trans-stimulation (% PfCRTDd2 control), [test solute]i = 5 mM (intracellular), PfCRTDd2 oocytes, normalised to oocyte type control): 99 ± 3.4%
activity at 5000 µM (PfCRT^Dd2 [7]; pH 5.5, read-out: Uptake of [3H]CQ (% PfCRTDd2 control), trans-stimulation, PfCRTDd2, total [3H]CQ transport, [test solute]i = 5 mM (intracellular), mean ± SEM, SEM): 101 ± 2.2%
activity at 5000 µM (PfCRT^Dd2 [7]; pH 5.5, read-out: Uptake of [3H]CQ (% PfCRTDd2 control), trans-stimulation, PfCRTDd2 oocytes, [test solute]i = 5 mM, total [3H]CQ transport, normalised to the oocyte type control): 101 ± 2.2%
activity at 45000 µM (PfCRT^Dd2 [7]; pH 5.5, read-out: Uptake of [3H]CQ (% PfCRTDd2 control), trans-stimulation, PfCRTDd2 oocytes, total [3H]CQ transport, normalised to the oocyte type control): 100 ± 2.4%
activity at 5000 µM (PfCRT^Dd2 [7]; pH 5.5, read-out: [3H]CQ transport (% PfCRTDd2 control), trans-stimulation, PfCRTDd2, trans-stimulation, [test solute]i = 5 mM (injected), PfCRT-mediated component (background subtracted), mean ± SEM, SEM): 99 ± 3.4%
activity at 45000 µM (PfCRT^Dd2 [7]; pH 5.5, read-out: [3H]CQ transport (% PfCRTDd2 control), trans-stimulation, PfCRTDd2, trans-stimulation, PfCRT-mediated component (background subtracted), mean ± SEM, SEM): 98 ± 3.7%
activity at 5000 µM (PfCRT^Ecu1110 [8]; pH 5.5, read-out: PfCRT-mediated [3H]CQ transport, trans-stimulation (% PfCRTEcu1110 control), [test solute]i = 5 mM (intracellular), PfCRTEcu1110 oocytes, normalised to oocyte type control): 97 ± 3.3%
activity at 5000 µM (PfCRT^Ecu1110 [8]; pH 5.5, read-out: Uptake of [3H]CQ (% PfCRTEcu1110 control), trans-stimulation, PfCRTEcu1110 oocytes, [test solute]i = 5 mM, total [3H]CQ transport, normalised to the oocyte type control): 99 ± 2.7%
activity at 45000 µM (PfCRT^Ecu1110 [8]; pH 5.5, read-out: Uptake of [3H]CQ (% PfCRTEcu1110 control), trans-stimulation, PfCRTEcu1110 oocytes, [test solute]i = 45 mM (30 mM for some solutes due to solubility), total [3H]CQ transport, normalised to the oocyte type control): 99 ± 3.5%
activity at 5000 µM (PfCRT^Ecu1110 [8]; read-out: Uptake of [3H]CQ (% PfCRTDd2 control), trans-stimulation, PfCRTEcu1110, total [3H]CQ transport, [test solute]i = 5 mM (intracellular), mean ± SEM, SEM): 35 ± 1.3%
activity at 45000 µM (PfCRT^Ecu1110 [8]; read-out: Uptake of [3H]CQ (% PfCRTDd2 control), trans-stimulation, PfCRTEcu1110, total [3H]CQ transport, [test solute]i = 45 mM (intracellular; 30 mM for some solutes due to solubility), mean ± SEM, SEM): 35 ± 2.6%
activity at 5000 µM (PfNT1; PfNT1 oocytes, [test solute]i = 5 mM, normalised to the oocyte type control, read-out: Uptake of [3H]CQ (% PfNT1 control), trans-stimulation): 99 ± 4.2%
activity at 45000 µM (PfNT1; SEM, read-out: Uptake of [3H]CQ (% PfCRTDd2 control), trans-stimulation, PfNT1): 2.8 ± 0.02%
activity at 45000 µM (PfNT1; read-out: Uptake of [3H]CQ (% PfNT1 control), trans-stimulation): 98 ± 3.1%
activity at 5000 µM (PfNT1; [test solute]i = 5 mM (intracellular), mean ± SEM, SEM, read-out: Uptake of [3H]CQ (% PfCRTDd2 control), trans-stimulation, PfNT1): 3.2 ± 0.02%
Compounds that have been tested as potential co-substrates but are not required for influx of VF-6 via PfCRT into the oocyte (PfCRT [9]): X
Tested as potential co-substrate but not required for influx of VF-6 via PfCRT into the oocyte (PfCRT [10]): X

From paper PMC7413254 (Nature Communications, 2020)
